Laboratory results from publication PMC12796986 (Journal of medicinal chemistry, 2025).
≈ marks a conversion by molar mass, not a printed value. Where two headings read alike, the source gives them in different places.

Tests used:
in vitro [1] = settings: human
VACV-Gluc reporter virus = assay: microbe, parasite or virus in culture; format: cell-based, vaccinia virus; settings: for EC50: Orthopoxvirus vaccinia, HFF, 24 h, read-out: VACV EC50
mpox resolvase (Mpr) = mpox resolvase (Mpr) (Monkeypox virus, UniProt A0A7H0DNC1); assay: biochemical; format: biochemical
in vitro [2] = settings: PAMPA
physchem = settings: pH 7.2, aqueous buffer, kinetic from dmso stock
in vitro [3] = settings: human, microsomes, pH 7.4
in vitro [4] = settings: human, plasma, pH 7.4
[5] = pH 7.2
[6] = tested on: fowlpox virus resolvase (Fpr); settings: read-out: Fpr IC50; cited from earlier work
[7] = microsomes

Chain of mpox resolvase (Mpr) (A0A7H0DNC1 whole entry, looked up): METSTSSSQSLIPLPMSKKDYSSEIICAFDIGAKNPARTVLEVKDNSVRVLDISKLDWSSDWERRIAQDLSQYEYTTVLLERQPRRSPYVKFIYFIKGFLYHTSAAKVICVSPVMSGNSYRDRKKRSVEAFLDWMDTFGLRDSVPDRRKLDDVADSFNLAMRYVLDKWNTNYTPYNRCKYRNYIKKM

Compound	CC50 (in vitro [1]) [nM]	SI (selectivity index, CC50 / EC50) (VACV-Gluc reporter virus)	EC50 (VACV-Gluc reporter virus) [nM]	IC50 (mpox resolvase (Mpr)) [nM]	fold improvement in Mpr inhibition over C-6 regioisomer (compound 3 for 5-1) (mpox resolvase (Mpr)) [fold]	Papp (in vitro [2]) [×10⁻⁶ cm/s]	solubility (physchem) [µM]	half-life (in vitro [3]) [h]	half-life (in vitro [4]) [h]	solubility [5]	IC50 [6] [nM]	human microsomal stability [7]	fold better antiviral potency than brincidofovir (VACV-Gluc reporter virus) [fold]	fold improvement in antiviral potency against VACV over compound 3 (VACV-Gluc reporter virus) [fold]	fluorescence quenching in the FRET assay (mpox resolvase (Mpr))
O=c1c(-c2ccccc2)c(O)c2cc(-c3ccccc3)cnc2n1O [4a-5, 1,4-dihydroxy-3,6-diphenyl-1,8-naphthyridin-2(1H)-one]	> 250000	>1.0 × 10^2	2400 ± 300	900 ± 200	–	–	–	–	–	–	–	–	–	–	–
O=c1cc(O)c2c(-c3cccc(-c4ccccc4)c3)ccnc2n1O [5-3, 5-([1,1’-biphenyl]-3-yl)-1,4-dihydroxy-1,8-naphthyridin-2(1H)-one]	> 250000	–	6000 ± 1000	15 ± 1	10	–	–	–	–	–	–	–	–	–	–
O=c1c(-c2ccccc2)c(O)c2cc(-c3ccc(Oc4ccccc4)cc3)cnc2n1O [4a-3, 1,4-dihydroxy-6-(4-phenoxyphenyl)-3-phenyl-1,8-naphthyridin-2(1H)-one]	> 250000	>1.9 × 10^2	1300 ± 400	120 ± 10	–	8.6 ± 0.8	86 ± 5 (≈ 36.3 µg/mL)	0.715 ± 0.0117	> 24	–	–	–	–	–	–
O=c1c(-c2ccccc2)c(O)c2cc(-c3cccc(-c4ccccc4)c3)cnc2n1O [compound 3, 6-([1,1’-biphenyl]-3-yl)-1,4-dihydroxy-3-phenyl-1,8-naphthyridin-2(1H)-one]	> 250000	>1.9 × 10^2	1300 ± 300	340 ± 60	–	6 ± 2	130 ± 8 (≈ 52.8 µg/mL)	> 2	> 24	acceptable solubility	300	excellent human microsomal stability	–	–	–
COc1ccc(-c2cnc3c(c2)c(O)c(-c2ccccc2)c(=O)n3O)cc1F [4a-10, 6-(3-fluoro-4-methoxyphenyl)-1,4-dihydroxy-3-phenyl-1,8-naphthyridin-2(1H)-one]	> 250000	>26	9700 ± 300	1600 ± 200	–	–	–	–	–	–	–	–	–	–	–
CCc1c(O)c2cc(-c3ccc(Oc4ccccc4)cc3)cnc2n(O)c1=O [4b-3, 3-ethyl-1,4-dihydroxy-6-(4-phenoxyphenyl)-1,8-naphthyridin-2(1H)-one]	> 250000	>1.5 × 10^2	1600 ± 100	320 ± 60	–	5.2 ± 0.6	47 ± 4 (≈ 17.6 µg/mL)	0.587 ± 0.0133	> 24	–	–	–	–	–	–
O=c1c(-c2ccccc2)c(O)c2c(-c3cccc(-c4ccccc4)c3)ccnc2n1O [5-1, 5-([1,1’-biphenyl]-3-yl)-1,4-dihydroxy-3-phenyl-1,8-naphthyridin-2(1H)-one]	150000	4.7 × 10^4	3.2 ± 0.7	36 ± 1	10	9 ± 1	130 ± 4 (≈ 52.8 µg/mL)	> 2	> 24	acceptable solubility	–	excellent human microsomal stability	2	400	–
CCc1c(O)c2cc(-c3ccc(-c4ccccc4)cc3)cnc2n(O)c1=O [4b-2, 6-([1,1’-biphenyl]-4-yl)-3-ethyl-1,4-dihydroxy-1,8-naphthyridin-2(1H)-one]	> 250000	>6.4 × 10^2	390 ± 10	360 ± 20	–	3.8 ± 0.1	1.4 ± 0.1 (≈ 0.502 µg/mL)	> 2	> 24	–	–	–	–	–	–
3-(5,8-dihydroxy-7-oxo-6-phenyl-7,8-dihydro-1,8-naphthyridin-3-yl) benzamide [4a-12]	–	–	–	–	–	–	–	–	–	–	–	–	–	–	fluorescence quenching
CCCCCCCCCCCCCCCCOCCCOP(=O)(O)CO[C@H](CO)Cn1ccc(N)nc1=O [Brincidofovir, brincidofovir, reference compound]	> 250000	>3 × 10^4	7 ± 4	–	–	–	–	–	–	–	–	–	–	–	–
CSc1ccc(-c2cnc3c(c2)c(O)c(-c2ccccc2)c(=O)n3O)cc1 [4a-8, 1,4-dihydroxy-6-(4-(methylthio)phenyl)-3-phenyl-1,8-naphthyridin-2(1H)-one]	–	–	–	370 ± 30	–	–	–	–	–	–	–	–	–	–	–
COc1ccc2cc(-c3cnc4c(c3)c(O)cc(=O)n4O)ccc2c1 [4c-4, 1,4-dihydroxy-6-(6-methoxynaphthalen-2-yl)-1,8-naphthyridin-2(1H)-one]	–	–	–	240 ± 30	–	–	–	–	–	–	–	–	–	–	–
